The assay concerns F21T (DNA, G4) GGGTTAGGGTTAGGGTTAGGG
Kind of assay: FRET melting. Conditions: 0.1 M KCl, 10 mM sodium cacodylate pH 7.2, 0.25 µM DNA.

Regarding `COc1ccc(Cc2nccc3cc(OC)c(OC)cc23)cc1OC`, the ΔTm (120 µM compound, authors: almost no interaction) is ~ 5 °C.

For the molecule `COc1ccc2cc3[n+](cc2c1OC)CCc1cc2c(cc1-3)OCO2`, the ΔTm (50 µM compound) was ~ 15.5 °C.

These data come from paper PMC6271551 (2014).
